Test results: PubChem BioAssay (NCI)
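96-well plates; 48 h exposure; 5 concentrations. Endpoints by linear interpolation between flanking doses. Not reached: highest tested concentration assigned. Abbreviation: GI50, concentration required for 50% inhibition of growth. TGI marks complete inhibition of growth.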

Key:
Test in all cases: DTP human tumour cell line panel, 48 h
[1] = system: 786-0 renal
[2] = system: A498 renal
[3] = system: A549 NSCLC
[4] = system: ACHN renal
[5] = system: BT-549 breast
[6] = system: CAKI-1 renal
[7] = system: CCRF-CEM leukemia
[8] = system: COLO 205 colon
[9] = system: DU-145 prostate
[10] = system: EKVX NSCLC
[11] = system: HCC-2998 colon
[12] = system: HCT-116 colon
[13] = system: HCT-15 colon
[14] = system: HL-60(TB) leukemia
[15] = system: HOP-62 NSCLC
[16] = system: HOP-92 NSCLC
[17] = system: HS 578T breast
[18] = system: HT29 colon
[19] = system: IGROV1 ovarian
[20] = system: K-562 leukemia
[21] = system: KM12 colon
[22] = system: LOX IMVI melanoma
[23] = system: M14 melanoma
[24] = system: MALME-3M melanoma
[25] = system: MCF7 breast
[26] = system: MDA-MB-231 breast
[27] = system: MDA-MB-435
[28] = system: MOLT-4 leukemia
[29] = system: NCI-H226 lung
[30] = system: NCI-H23 lung
[31] = system: NCI-H460 lung
[32] = system: NCI-H522 lung
[33] = system: NCI/ADR-RES ovarian
[34] = system: OVCAR-3 ovarian
[35] = system: OVCAR-4 ovarian
[36] = system: OVCAR-5 ovarian
[37] = system: OVCAR-8 ovarian
[38] = system: PC-3 prostate
[39] = system: RPMI-8226 leukemia
[40] = system: RXF 393 renal
[41] = system: SF-268 CNS
[42] = system: SF-295 CNS
[43] = system: SF-539 CNS
[44] = system: SK-MEL-2 melanoma
[45] = system: SK-MEL-28 melanoma
[46] = system: SK-MEL-5 melanoma
[47] = system: SK-OV-3 ovarian
[48] = system: SN12C renal
[49] = system: SNB-19 CNS
[50] = system: SNB-75 CNS
[51] = system: SR leukemia
[52] = system: SW-620 colon
[53] = system: T-47D breast
[54] = system: TK-10 renal
[55] = system: U251 CNS
[56] = system: UACC-257 melanoma
[57] = system: UACC-62 melanoma
[58] = system: UO-31 renal

CC1(C)C(N(O)C(=O)Nc2ccc(Cl)cc2)N(c2ccc(Cl)cc2)C(=O)N1CC(=O)N/N=C/C=C/c1ccc([N+](=O)[O-])o1 (centres undefined)
GI50 [1]: 2750 nM | TGI [1]: 10300 nM | GI50 [2]: 1730 nM | TGI [2]: 4120 nM | GI50 [3]: 3110 nM | TGI [3]: > 28500 nM | GI50 [4]: 3160 nM | TGI [4]: > 100000 nM | GI50 [5]: 1600 nM | TGI [5]: 5190 nM | GI50 [6]: > 23200 nM | TGI [6]: > 100000 nM | GI50 [7]: 604 nM | TGI [7]: 2200 nM | GI50 [8]: 1330 nM | TGI [8]: 2850 nM | GI50 [9]: 1850 nM | TGI [9]: 4070 nM | GI50 [10]: 3170 nM | TGI [10]: > 83400 nM | GI50 [11]: 1700 nM | TGI [11]: 3430 nM | GI50 [12]: 731 nM | TGI [12]: 2520 nM | GI50 [13]: 2490 nM | TGI [13]: > 100000 nM | GI50 [14]: 1090 nM | TGI [14]: 4000 nM | GI50 [15]: 2760 nM | TGI [15]: 6200 nM | GI50 [16]: 522 nM | TGI [16]: 2310 nM | GI50 [17]: 3000 nM | TGI [17]: > 84400 nM | GI50 [18]: 1920 nM | TGI [18]: > 22600 nM | GI50 [19]: 2460 nM | GI50 [20]: 1570 nM | TGI [20]: 6030 nM | GI50 [21]: 1710 nM | TGI [21]: 3760 nM | GI50 [22]: 1560 nM | TGI [22]: 3040 nM | GI50 [23]: 1880 nM | TGI [23]: 7080 nM | GI50 [24]: 1290 nM | TGI [24]: 3080 nM | GI50 [25]: 1010 nM | TGI [25]: > 26700 nM | GI50 [26]: 2040 nM | TGI [26]: 7570 nM | GI50 [27]: 2610 nM | TGI [27]: 10900 nM | GI50 [28]: 804 nM | TGI [28]: 4470 nM | GI50 [29]: 1990 nM | TGI [29]: 4880 nM | GI50 [30]: 2130 nM | TGI [30]: 5560 nM | GI50 [31]: 2270 nM | TGI [31]: 6390 nM | GI50 [32]: 2230 nM | TGI [32]: > 21300 nM | GI50 [33]: > 100000 nM | TGI [33]: > 100000 nM | GI50 [34]: 1490 nM | TGI [34]: 3960 nM | GI50 [35]: 3870 nM | TGI [35]: > 100000 nM | GI50 [36]: 3810 nM | TGI [36]: 14000 nM | GI50 [37]: 1860 nM | GI50 [38]: 679 nM | GI50 [39]: 327 nM | TGI [39]: 1630 nM | GI50 [40]: 337 nM | TGI [40]: 1640 nM | GI50 [41]: 3800 nM | TGI [41]: > 59000 nM | GI50 [42]: 2550 nM | TGI [42]: > 100000 nM | GI50 [43]: 1810 nM | TGI [43]: 3810 nM | GI50 [44]: 946 nM | TGI [44]: 4420 nM | GI50 [45]: 1610 nM | TGI [45]: 3160 nM | GI50 [46]: 1320 nM | TGI [46]: 2760 nM | GI50 [47]: 4480 nM | TGI [47]: > 100000 nM | GI50 [48]: 1730 nM | TGI [48]: 9730 nM | GI50 [49]: 2270 nM | TGI [49]: 6730 nM | GI50 [50]: 1880 nM | TGI [50]: 7110 nM | GI50 [51]: 273 nM | TGI [51]: 1950 nM | GI50 [52]: 1310 nM | TGI [52]: 3520 nM | GI50 [53]: 3470 nM | TGI [53]: > 70100 nM | GI50 [54]: 4060 nM | TGI [54]: > 100000 nM | GI50 [55]: 1570 nM | TGI [55]: > 20700 nM | GI50 [56]: 1580 nM | TGI [56]: 3520 nM | GI50 [57]: 1350 nM | TGI [57]: 3910 nM | GI50 [58]: 2640 nM | TGI [58]: > 20800 nM

N#Cc1c(-c2ccccc2)cc(-c2ccccc2)n(CCCC(=O)NO)c1=O
GI50 [1]: 1600 nM | TGI [1]: 5850 nM | GI50 [2]: 788 nM | TGI [2]: 2950 nM | GI50 [3]: 2200 nM | TGI [3]: 7950 nM | GI50 [4]: 494 nM | TGI [4]: 3590 nM | GI50 [5]: 2770 nM | TGI [5]: 14100 nM | GI50 [6]: 473 nM | TGI [6]: 2650 nM | GI50 [7]: 847 nM | TGI [7]: 7150 nM | GI50 [8]: 1970 nM | TGI [8]: 4970 nM | GI50 [9]: 2660 nM | TGI [9]: 10500 nM | GI50 [10]: 1800 nM | TGI [10]: 7810 nM | GI50 [11]: 2170 nM | TGI [11]: 8660 nM | GI50 [12]: 1670 nM | TGI [12]: 6700 nM | GI50 [13]: 434 nM | TGI [13]: 10700 nM | GI50 [14]: 1810 nM | TGI [14]: 5430 nM | GI50 [15]: 2000 nM | TGI [15]: 6980 nM | GI50 [16]: 1970 nM | TGI [16]: 7530 nM | GI50 [17]: 1810 nM | TGI [17]: 8500 nM | GI50 [18]: 2580 nM | TGI [18]: 8580 nM | GI50 [19]: 1690 nM | TGI [19]: 4770 nM | GI50 [20]: 729 nM | TGI [20]: 12900 nM | GI50 [21]: 1100 nM | TGI [21]: 11800 nM | GI50 [22]: 1630 nM | TGI [22]: 3410 nM | GI50 [23]: 898 nM | TGI [23]: 10100 nM | GI50 [24]: 704 nM | TGI [24]: 11500 nM | GI50 [25]: 1700 nM | TGI [25]: 10600 nM | GI50 [26]: 2900 nM | TGI [26]: 10400 nM | GI50 [27]: 324 nM | TGI [27]: 10700 nM | GI50 [28]: 1220 nM | TGI [28]: 5980 nM | GI50 [29]: 2240 nM | TGI [29]: 7410 nM | GI50 [30]: 2770 nM | TGI [30]: 9940 nM | GI50 [31]: 1720 nM | TGI [31]: 8780 nM | GI50 [32]: 1330 nM | TGI [32]: 5890 nM | GI50 [33]: 541 nM | TGI [33]: 3720 nM | GI50 [34]: 1610 nM | TGI [34]: 4600 nM | GI50 [35]: 1920 nM | TGI [35]: 11800 nM | GI50 [36]: 2300 nM | TGI [36]: 8430 nM | GI50 [37]: 1140 nM | TGI [37]: 8670 nM | GI50 [38]: 2130 nM | TGI [38]: 14400 nM | GI50 [39]: 1140 nM | TGI [39]: 3800 nM | GI50 [40]: 939 nM | TGI [40]: 2740 nM | GI50 [41]: 2310 nM | TGI [41]: 6720 nM | GI50 [42]: 2150 nM | TGI [42]: 5020 nM | GI50 [43]: 1680 nM | TGI [43]: 5030 nM | GI50 [44]: 2020 nM | TGI [44]: 10000 nM | GI50 [45]: 2880 nM | TGI [45]: 12700 nM | GI50 [46]: 1890 nM | TGI [46]: 4740 nM | GI50 [47]: 1980 nM | TGI [47]: 5230 nM | GI50 [48]: 2340 nM | TGI [48]: 10300 nM | GI50 [49]: 2700 nM | TGI [49]: 13000 nM | GI50 [50]: 1240 nM | TGI [50]: 4850 nM | GI50 [51]: 361 nM | TGI [51]: 3650 nM | GI50 [52]: 1930 nM | TGI [52]: 12600 nM | GI50 [53]: 1830 nM | TGI [53]: 8340 nM | GI50 [54]: 1000 nM | TGI [54]: 11100 nM | GI50 [55]: 1690 nM | TGI [55]: 4620 nM | GI50 [56]: 1730 nM | TGI [56]: 7380 nM | GI50 [57]: 1820 nM | TGI [57]: 5630 nM | GI50 [58]: 392 nM | TGI [58]: 2300 nM
